Legend:
[1] = Particle size and PDI of nucleic acid lipid nanoparticle preparations by dynamic light scattering; assay type: physicochemical
How it was run: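 Nanoparticle suspension (about 0.04 mg/mL mRNA) diluted in ultrapure water, mixed by gentle pipetting; particle size measured by dynamic light scattering. Zeta potential measured on the recovered sample after further dilution in ultrapure water.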

[2] = Potential characterization of nucleic acid lipid nanoparticle preparations; assay type: physicochemical
Protocol: 20 μL of the nucleic acid lipid nanoparticle solution (containing about 0.04 mg/mL mRNA) was taken and added with 780 μL of ultrapure water, used a pipette tip to gently blow and mix, and the potential of the nanopreparation was detected by Malvern particle sizer (model ZEN3700).
27.5 μL nucleic acid lipid nanoparticle solution (containing about 0.04 mg/mL mRNA) was taken and added with 200 μL ultrapure water. A pipette tip was used to gently blow the sample and mix well. The particle size of the nanopreparation was detected by Malvern Dynamic Light Scattering Instrument (Malvern Instruments Ltd., ZEN3700, UK). After the detection, the sample was recovered to an EP tube, and 600 μL of ultrapure water was added, gently blown with a pipette tip, and the potential of the nanopreparation was measured by a Malvern particle size meter.

mice = test: In vivo delivery of FLuc-mRNA lipid nanoparticles in mice, in vivo imaging (IVIS); details: for IVIS: Fluc-mRNA
How it was run: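 Mice (n=3) received about 75 μL FLuc-mRNA LNP per mouse intramuscularly (rectus femoris), intravenously (tail vein), intraperitoneally or subcutaneously (back). After injection, D-luciferin (200 μL, 15 mg/mL) was given i.p. 10-15 min before IVIS imaging.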

[3] = DMG-PEG2000:DSPC:Chol:compound 1.40:11.15:38.95:48.50, N/P 30
[4] = IM, DMG-PEG2000:DSPC:Chol:compound 1.40:11.15:38.95:48.50, N/P 30
[5] = IV, body, DMG-PEG2000:DSPC:Chol:compound 1.40:11.15:38.95:48.50, N/P 30
[6] = IV, liver, DMG-PEG2000:DSPC:Chol:compound 1.40:11.15:38.95:48.50, N/P 30
[7] = IV, lung, DMG-PEG2000:DSPC:Chol:compound 1.40:11.15:38.95:48.50, N/P 30
[8] = IV, spleen, DMG-PEG2000:DSPC:Chol:compound 1.40:11.15:38.95:48.50, N/P 30
[9] = DMG-PEG2000:DSPC:Chol:compound 1.40:11.15:38.95:48.50, N/P 20
[10] = IM, DMG-PEG2000:DSPC:Chol:compound 1.40:11.15:38.95:48.50, N/P 20
[11] = IV, organ not given, DMG-PEG2000:DSPC:Chol:compound 1.40:11.15:38.95:48.50, N/P 20

| Compound | PDI [1, 3] | Particle size (nm) [1, 3] [nm] | Zeta potential (mV) [2, 3] [mV] | PDI [1, 9] | Particle size (nm) [1, 9] [nm] | Zeta potential (mV) [2, 9] [mV] | IVIS (mice; [4]) | IVIS (mice; [5]) | % of organ targeting (mice; [6]) [%] | IVIS (mice; [6]) | % of organ targeting (mice; [7]) [%] | IVIS (mice; [7]) | % of organ targeting (mice; [8]) [%] | IVIS (mice; [8]) | IVIS (mice; [10]) | IVIS (mice; [11]) | IVIS (mice; IV, organ not given, DMG-PEG2000:DSPC:Chol:compound 1.40:11.15:38.95:48.50, N/P 30) |
| --- | --- | --- | --- | --- | --- | --- | --- | --- | --- | --- | --- | --- | --- | --- | --- | --- | --- |
| CCCCCCCCCCNC(=O)C(O)CN(CCCN(CCCN(CC(O)C(=O)NCCCCCCCCCC)CC(O)C(=O)NCCCCCCCCCC)C(CO)CO)CC(O)C(=O)NCCCCCCCCCC (stereo not drawn) [Compound L0287] | 0.18 | 137.37 | 14.13 |  |  |  | 1.81E+06 | 1.89E+07 | 34.55 | 3.26E+06 | 25.98 | 2.45E+06 | 39.46 | 3.72E+06 |  |  |  |
| CCCCCCCCCCOC(=O)C(O)CN(C)CCCN(C)CCCN(C)CC(O)C(=O)OCCCCCCCCCC (stereo not drawn) [Compound L0315] | 0.13 | 141.63 | 12.5 |  |  |  | 8.43E+05 |  |  |  |  |  |  |  |  |  | 5.00E+05 |
| CCCCCCCCCCOC(=O)C(O)CN(CCOCCN(CC(O)C(=O)OCCCCCCCCCC)CC(O)C(=O)OCCCCCCCCCC)CC(O)C(=O)OCCCCCCCCCC (stereo not drawn) [Compound L0314] |  |  |  | 0.26 | 559.3 | 11.33 |  |  |  |  |  |  |  |  | 3.31E+05 | 2.35E+05 |  |
| CCCCCCCCCCNC(=O)C(O)CN(CCCCCN(CC(O)C(=O)NCCCCCCCCCC)CC(O)C(=O)NCCCCCCCCCC)CC(O)C(=O)NCCCCCCCCCC (stereo not drawn) [Compound L0320] |  |  |  | 0.10 | 120.33 | 10.39 |  |  |  |  |  |  |  |  | 1.45E+05 | 6.60E+05 |  |

The next lines start with results.

| PDI [1, 3] | Particle size (nm) [1, 3] [nm] | Zeta potential (mV) [2, 3] [mV] | PDI [1, 9] | Particle size (nm) [1, 9] [nm] | Zeta potential (mV) [2, 9] [mV] | Compound | IVIS (mice; [4]) | IVIS (mice; [5]) | % of organ targeting (mice; [6]) [%] | IVIS (mice; [6]) | % of organ targeting (mice; [7]) [%] | IVIS (mice; [7]) | % of organ targeting (mice; [8]) [%] | IVIS (mice; [8]) | IVIS (mice; [10]) | IVIS (mice; [11]) | IVIS (mice; IV, organ not given, DMG-PEG2000:DSPC:Chol:compound 1.40:11.15:38.95:48.50, N/P 30) |
| --- | --- | --- | --- | --- | --- | --- | --- | --- | --- | --- | --- | --- | --- | --- | --- | --- | --- |
| 0.15 | 126.63 | 12.37 |  |  |  | CCCCCCCCCCOC(=O)C(O)CN(CCCN(CC(O)C(=O)OCCCCCCCCCC)CC(O)C(=O)OCCCCCCCCCC)CCCN(CC(O)C(=O)OCCCCCCCCCC)CC(O)C(=O)OCCCCCCCCCC (stereo not drawn) [Compound L0339] | 8.33E+07 | 5.92E+07 | 28.78 | 1.17E+07 | 0.41 | 1.67E+05 | 70.81 | 2.87E+07 |  |  |  |
|  |  |  | 0.13 | 172.83 | 11.20 | CCCCCCCCCCCCOC(=O)C(O)CN(CCCCCN(CC(O)C(=O)OCCCCCCCCCCCC)CC(O)C(=O)OCCCCCCCCCCCC)CC(O)C(=O)OCCCCCCCCCCCC (stereo not drawn) [Compound L0319] |  |  |  |  |  |  |  |  | 7.22E+05 | 1.32E+06 |  |

Reference: US12233161B1, “Lipids and lipid nanoparticle formulations” (LONGUIDE BIOPHARMA CORPORATION, priority 2024, dated 2025)
